Source: EP0242482B1, “Antiviral purine derivatives and process for their preparation” (BEECHAM GROUP PLC, priority 1985, dated 1987)
In brackets after ≈: the same amount, converted by molar mass. Like-named read-outs stand apart in the source and are kept apart here.

How the values were obtained:
[1] = system: herpes simplex virus 1, strain SC16; test: CPE inhibition test (replicating cells) for herpes simplex virus 1; type: cell-based; conditions: Human alphaherpesvirus 1, SC16, MRC5, SC16 strain in MRC-5 cells; each figure is the value obtained in a single test; read-out: IC₅₀ Herpes Simplex Type 1 virus SC16 strain in MRC-5 cells
Source text: MRC-5 cells (in Eagles MEM containing 5% newborn calf serum) were infected in suspension with herpes simplex virus 1, strain SC16 (approximately one infectious particle per 10 cells). One hundred microlitres of the infected cell suspension (containing approximately 2 x 10⁴ cells) were dispensed into each well of a 96 well microtitre plate containing an equal volume of the test drug in medium (Eagles MEM containing 5% newborn calf serum) at concentrations ranging from 200 to 0.09»g/ml (3-fold dilution steps); final concentrations therefore ranged between 100 to 0.045»g/ml. The plates were then incubated at 37°C in a humidified atmosphere of 5% CO₂ for 3 days when the virus-induced cytopathic effect (CPE) in the control wells reached 100%. The plates were fixed in formal saline and stained with carbol fuchsin. […] Plates of uninfected cells were set up in parallel to determined the minimum concentration of test compound which caused cytotoxicity.

[2] = system: herpes simplex virus 2 (HSV-2; strain MS); test: Plaque reduction test for herpes simplex virus 2; type: cell-based, Herpes Simplex Type 2 virus; conditions: each figure is the value obtained in a single test
Experimental: (§1) Cells (Vero or MRC-5) were grown to confluence in 24 well multi-dishes (well diameter = 1.5cm). The drained cell monolayers were each infected with approximately 50 infectious particles of herpes simplex virus 1 (HSV-1; strain HFEM) or herpes simplex virus 2 (HSV-2; strain MS) in 100»l of phosphate-buffered saline. The virus was adsorbed for 1 hour at room temperature. After adsorption, residual inoculum was removed from each well and replaced with 0.5ml of Eagle's MEM containing 5% newborn calf serum and 0.9% agarose (A37). Once the agarose had set, dilutions of the test compound, which had been prepared in Eagle's MEM (containing 5% newborn calf serum), were added, each well receiving 0.5ml of liquid overlay. The test compound was diluted to give the following series of concentrations: 200, 60, 20, 6....0.06»g/ml; final concentrations in the assay ranged, therefore, between 100»g/ml and 0.03»g/ml. The infected cultures were incubated at 37°C in a humidified atmosphere of 5% CO₂ until plaques were clearly visible (2 or 3 days for Vero cells, usually 1 day for MRC-5 cells).
(§2) Cultures from 1 and 2 were fixed in formal saline, the agarose overlays were carefully washed off, and then the cell monolayers were stained with carbol fuchsin. A stereo microscope was used to count plaques. The IC₅₀ (concentration of drug which inhibits plaque number by 50% relative to the number of plaques observed in virus control monolayers) of the test compound was calculated. In addition, the monolayers were examined for evidence of drug-induced cytotoxicity; the minimum concentration at which cytotoxicity occurs was recorded.

[3] = system: herpes simplex virus 1 (HSV-1; strain HFEM); test: Plaque reduction test for herpes simplex virus 1; type: cell-based; conditions: Human alphaherpesvirus 1, Vero, HFEM strain in Vero cells; each figure is the value obtained in a single test; read-out: IC₅₀ Herpes Simplex Type 1 virus HFEM strain in Vero cells
Experimental: as §1, §2

[4] = system: varicella zoster virus (VZV; Ellen strain); test: Plaque reduction test for varicella zoster virus; type: cell-based; conditions: Human alphaherpesvirus 3, MRC5, Ellen strain in MRC-5 cells; each figure is the value obtained in a single test; read-out: IC₅₀ Varicella Zoster virus Ellen strain in MRC-5 cells
Experimental: MRC-5 cells were grown to confluence in 24 well multi-dishes (well diameter = 1.5cm). The drained cell monolayers were each infected with approximately 50 infectious particles of varicella zoster virus (VZV; Ellen strain) in 100»l of phosphate-buffered saline. The virus was adsorbed for 1 hour at room temperature. After adsorption, residual inoculum was removed from each well and replaced with 0.5ml of Eagle's MEM containing 5% heat-inactivated foetal calf serum and 0.9% agarose (A37). Once the agarose had set, dilutions of the test compound, which had been prepared in Eagle's MEM (containing 5% heat-inactivated foetal calf serum), were added, each well receiving 0.5ml of liquid overlay. The test compound was diluted to give the following series of cencentrations: 200, 60, 20, 6....0.06»g/ml; final concentrations in the assay ranged, therefore, between 100»g/ml and 0.03»g/ml. The infected cultures were incubated at 37°C in a humidified atmosphere of 5% CO₂ until plaques were clearly visible (5 or 6 days).
as §2

[5] = system: visna virus (strain K184); test: CPE inhibition test (established monolayer) for lentiviruses; type: cell-based; conditions: minimum concentration giving complete protection of the cell monolayers
Experimental: 3 x 10⁴ sheep choroid plexus (SCP) cells were plated into individual wells of a 96 well microtitre plate in 100»l of Eagle's MEM with Hanks salts containing 10% heat inactivated foetal calf serum (FCS). When monolayers had become established (after 1 or 2 days growth) they were washed with 200»l of maintenance medium (Eagle's MEM with Hanks salts containing 0.5% FCS) and infected with 100»l of visna virus (strain K184) in maintenance medium (30 TCID₅₀/ml). Test samples were diluted with maintenance medium in further 96 well microtitre plates over the range 200-0.09»g/ml by 3-fold dilution steps. 100»l of the diluted samples was then transferred directly onto virus-infected monolayers (final concentration range therefore 100-0.045»g/ml) and incubated at 37°C in a humidified, 5% CO₂ incubation until virus-induced CPE was maximal in the untreated virus-infected controls (usually 12-14 days). The plates were fixed with formal saline and stained with crystal violet. Virus-induced CPE was then scored microscopically and the minimum concentration of sample giving complete protection of the cell monolayers (MIC) determined.

[6] = Human alphaherpesvirus 2, MRC5, MS strain in MRC-5 cells, read-out: IC₅₀ Herpes Simplex Type 2 virus MS strain in MRC-5 cells
[7] = Human alphaherpesvirus 2, Vero, MS strain in Vero cells, read-out: IC₅₀ Herpes Simplex Type 2 virus MS strain in Vero cells

Row | SMILES | IC50 [1] | IC50 [2, 6] | IC50 [3] | IC50 [2, 7] | IC50 [4] | MIC Visna Virus K184 strain in SCP cells [5]
1 | Nc1nc2c(ncn2O[C@H](CO)CCO)c(=O)[nH]1 [Example 15, (S)-9-(1,4-Dihydroxybut-2-oxy)guanine] | 7.4 µg/mL (≈ 29 µM) |  |  |  |  | 
2 | CC(=O)OCCCOn1cnc2c(=O)[nH]c(N)nc21 [Example 2, 9-(3-Acetoxyprop-1-oxy)guanine] | 0.4 µg/mL (≈ 1.5 µM) | 1.1 µg/mL (≈ 4.12 µM) | 4.3 µg/mL (≈ 16.1 µM) |  |  | 
3 | Nc1nc2c(ncn2OCC(CO)CO)c(=O)[nH]1 [Example 5, 9-(3-Hydroxy-2-hydroxymethylprop-1-oxy)guanine] | 1.8 µg/mL (≈ 7.05 µM) | 1.5 µg/mL (≈ 5.88 µM) | 1.5 µg/mL (≈ 5.88 µM) | 1.5 µg/mL (≈ 5.88 µM) | 2.9 µg/mL (≈ 11.4 µM) | 0.1 »g/ml
4 | Nc1nc2c(ncn2OC(CO)CCO)c(=O)[nH]1 (stereo not shown) [Example 8, 9-(1,4-Dihydroxybut-2-oxy)guanine] | 11 µg/mL (≈ 43.1 µM) |  |  |  |  | 30 »g/ml
5 | CCCCCC(=O)OCCCOn1cnc2c(=O)[nH]c(N)nc21 [Example 11, 9-(3-Hexanoyloxyprop-1-oxy)guanine] | 0.1 µg/mL (≈ 0.309 µM) |  | 0.7 µg/mL (≈ 2.16 µM) |  | 0.1 µg/mL (≈ 0.309 µM) | 
6 | Nc1nc2c(ncn2OCC(O)CO)c(=O)[nH]1 (stereo not shown) [Example 6, 9-(2,3-Dihydroxyprop-1-oxy)guanine] | 1.9 µg/mL (≈ 7.88 µM) | 0.7 µg/mL (≈ 2.9 µM) | 8.6 µg/mL (≈ 35.7 µM) | 1.6 µg/mL (≈ 6.63 µM) | 2.3 µg/mL (≈ 9.54 µM) | 10 »g/ml
7 | Nc1nc2c(ncn2O[C@@H](CO)CCO)c(=O)[nH]1 [Example 14, (R)-9-(1,4-Dihydroxybut-2-oxy)guanine] | 100 µg/mL (≈ 392 µM) |  |  |  |  | 
8 | CCOc1nc(N)nc2c1ncn2OCCCO [Example 4, 2-Amino-6-ethoxy-9-(3-hydroxyprop-1-oxy)purine] | 100 µg/mL (≈ 395 µM) | 67 µg/mL (≈ 265 µM) |  |  | 21 µg/mL (≈ 82.9 µM) | 
9 | Nc1nc2c(ncn2OCCCOC(=O)c2ccccc2)c(=O)[nH]1 [Example 3, 9-(3-Benzoyloxyprop-1-oxy)guanine] | 1.2 µg/mL (≈ 3.64 µM) | 2.1 µg/mL (≈ 6.38 µM) | 2.8 µg/mL (≈ 8.5 µM) |  |  | 
10 | Nc1ncc2ncn(OCC(O)CO)c2n1 (stereo not shown) [Example 7, 2-Amino-9-(2,3-dihydroxyprop-1-oxy)purine] | 100 µg/mL (≈ 444 µM) |  |  |  | 57 µg/mL (≈ 253 µM) | 
11 | Nc1nc2c(ncn2OCCCO)c(=O)[nH]1 [Example 1, 9-(3-Hydroxyprop-1-oxy)guanine] |  | 0.1 µg/mL (≈ 0.444 µM) | 0.4 µg/mL (≈ 1.78 µM) | 0.3 µg/mL (≈ 1.33 µM) |  | 3.0 »g/ml
